The values that follow come from patent US20260233024A1, “IRIDIUM COMPLEX, PHOTOSENSITIZER, AND COMPOSITION FOR PHOTODYNAMIC THERAPY” (UNIST(ULSAN NATIONAL INSTITUTE OF SCIENCE AND TECHNOLOGY), priority 2022, published 2026).

Like-named read-outs stand apart in the source and are kept apart here. A value given as a limit tells only on which side of the number the result lay.

One series deals with HeLa. Briefly: MTT cell viability after iridium complex treatment, with or without light (photodynamic cancer cell killing). In kind it is cell-based. Conditions: for IC50: HeLa. On the procedure: (§1) After seeding 1.5×10^4 cells in a 96-well plate, the cells were cultured overnight at 37° C. under 5% carbon dioxide conditions. Afterwards, the cells were treated with the iridium complex and cultured for 2 hours, after which the medium was replaced with fresh medium. After irradiated for 30 seconds with a 1 sun simulator (100 mW/cm2, PEG-L01, Peccell), cells were cultured for an additional 24 hours in a humidified incubator containing 5% carbon dioxide at 37° C. Cell viability was measured using the MTT (tetrazolium salt (3-(4,5-dimethylthiazol-2-yl)-2,5-diphenyltetrazolium bromide)) assay. MTT reagent was added to each well and cultured for 4 hours, and then the formazan crystals produced in the surviving cells were dissolved in DMSO, followed by measurement of the absorbance at 570 nm.
(§2) When the same light (1 sun, 3 J/cm^2) was irradiated to cancer cells administered with the HBrb, B2, and TIr3 iridium complexes as respective photosensitizers, the IC50 values for the respective photo sensitizers were first calculated, and the results are shown in Table 2 below.
(§3) Data indicating the inherent toxicity may be determined by cell viability under conditions without light application (hv−). The experimental results in FIGS. 6A-6F show the cell viability for each cell under conditions where no light was given, where M indicates the cell line MDA-MB-231, A indicates the cell line A549, H indicates the cell line HeLa, C indicates the cell line Caco-2, and P indicates the cell line PANC-1, respectively. FIGS. 6A, 6B, and 6C represent the cell viability when each substance was administered to each cell line for 2 hours, replaced with new media, and then cultured for an additional 24 hours. FIG. 6D is a graph of cell viability when TIr3 and B2 were administered at different concentrations, and at the concentration of a combination of the two (TIr3+B2), to PANC-1, pancreatic cancer cells. […] FIGS. 6E and 6F show the results of identifying the change in the cell viability in the MDA-MB-231 breast cancer cell line under conditions with TIr3 only and the TIr3+B2 combination depending on the presence of light irradiation.

The next series concerns A549. Described as above. Type of series: cell-based. On the procedure: as §1, §2, §3
A further series concerns Caco-2. The description is as above. Type of series: cell-based. On the procedure:
as §1, §2, §3

The next series relates to MDA-MB-231. Described as above. Type of series: cell-based. On the procedure: as §1, §2, §3
The next series has as its system PANC-1. The series is described as above. In kind it is cell-based. Conditions: for cell viability (hv−): FIG. 6D, especially 16 and 32 μM. On the procedure: as §1, §2, §3
Series [1] can be described thus: Dynamic light scattering of Kolliphor HS15 micelles. Conditions: 1 mg/mL in distilled water using 5% Kolliphor HS15. In kind it is physicochemical. On the procedure:
FIGS. 7A-7E illustrates schematic diagrams of micellized synergistic combination (SY) of TIr3 and B2 using Kolliphor HS 15 surfactant (FIG. 7A). As a result, when TIr3, B2, and 0.5 mg/ml TIr3+0.5 mg/ml B2 (SY) materials are dissolved in distilled water at a concentration of 1 mg/mL using 5% Kolliphor HS15, it was found via dynamic light scattering (DLS) that nanoparticles with a size of approximately 10 nm were formed (FIG. 7B). In addition, the size of the SY combination was reidentified through transmission electron microscopy (TEM) (FIG. 7C). […] After four administrations of the drug, the results of hepatotoxicity (alanine aminotransferase, ALT) on the 17th day are shown in FIG. 7E.

A further series deals with MKN45. Briefly: MTT cell viability after iridium complex treatment, with or without light (photodynamic cancer cell killing). In kind it is cell-based. On the procedure: as §1, §2
Setting [2] is: light 1 sun, 3 J/cm^2 (100 mW/cm2, 30 s), 2 h treatment, 24 h culture, read-out: IC50 (hv+).
The mark [3] stands for this setting: no light, read-out: IC50 (hv−), IC50, dark.
[4] abbreviates: light 1 sun, 3 J/cm^2, read-out: IC50 (hv+).

As to `Cc1cc(-c2sc3ccccc3[c]2[Ir]([O]C(=O)c2ncccc2OCCCN2CCOCC2)[c]2c(-c3cc(C)c4ccccc4n3)sc3ccccc23)nc2ccccc12` [Example B2], the IC50 with HeLa (setting [2]) is 2.4 ± 0.08 µM; in the series with HeLa (setting [3]), > 32 µM; with A549 (setting [2]), 3.8 ± 1.3 µM; in the series on A549 (setting [3]), > 32 µM; with Caco-2 (setting [4]), 0.68 ± 0.01 µM; with Caco-2 (setting [3]), > 32 µM. Besides, the IC50 is 0.89 ± 0.1 µM with MDA-MB-231 (setting [4]); > 32 µM in the series on MDA-MB-231 (setting [3]); 11.7 ± 2.02 µM in the series with PANC-1 (setting [2]); > 32 µM in the series with PANC-1 (setting [3]); 0.86 ± 0.03 µM with MKN45 (setting [4]); > 32 µM in the series on MKN45 (setting [3]). Besides, in the series on HeLa (up to 32 μM, no light), the “inherent toxicity of photosensitizer” value was “non-toxic”. Moreover, the “cell viability (hv−)” value in the series with PANC-1 (no light) is listed as “excellent biocompatibility”. For the same compound, the “nanoparticle size (DLS)” value in series [1] was “approximately 10 nm”.

Take `CC(=O)C=C(C)[O][Ir]([c]1c(-c2cc(C(F)(F)F)c3ccccc3n2)sc2ccccc12)[c]1c(-c2cc(C(F)(F)F)c3ccccc3n2)sc2ccccc12` [FIra]: the IC50 in the series with HeLa (setting [2]), in the series with A549 (setting [2]) and in the series on PANC-1 (setting [2]) was > 32 µM each time.

Turning to `O=C([O][Ir]([c]1c(-c2cc(C(F)(F)F)c3ccccc3n2)sc2ccccc12)[c]1c(-c2cc(C(F)(F)F)c3ccccc3n2)sc2ccccc12)c1ncccc1O` [FIrp], the IC50 in the series on HeLa (setting [2]), with A549 (setting [2]) and in the series on PANC-1 (setting [2]) was > 32 µM in each case.

With `CC(=O)C=C(C)[O][Ir]([c]1c(-c2cc(C)c3ccccc3n2)sc2ccccc12)[c]1c(-c2cc(C)c3ccccc3n2)sc2ccccc12` [HIra], the IC50 with HeLa (setting [2]), with A549 (setting [2]) and with PANC-1 (setting [2]) was > 32 µM each time.

Turning to `[Cl-].c1ccc(-c2ccc3ccccc3n2)[c]([Ir+][c]2ccccc2-c2ccc3ccccc3n2)c1.c1ccc(-c2ccccn2)nc1` [TIr3], the IC50 in the series with HeLa (setting [2]) was determined as 1.53 ± 0.07 µM; with HeLa (setting [3]), 8.77 ± 0.73 µM; in the series on A549 (setting [2]), 3.12 ± 0.2 µM; with A549 (setting [3]), 19.8 ± 1.99 µM; in the series with Caco-2 (setting [4]), 0.89 ± 0.09 µM; in the series on Caco-2 (setting [3]), 7.88 ± 0.13 µM. Besides, the IC50 came to 0.89 ± 0.02 µM with MDA-MB-231 (setting [4]); 7.51 ± 0.84 µM in the series on MDA-MB-231 (setting [3]); 3.86 ± 0.18 µM in the series on PANC-1 (setting [2]); 10.7 ± 0.39 µM with PANC-1 (setting [3]); 0.55 ± 0.06 µM in the series with MKN45 (setting [4]); 16.3 ± 0.17 µM in the series with MKN45 (setting [3]). For the same compound, in the series with PANC-1 (no light), the “cell viability (hv−)” value is listed as “low cell viability”. Also, in series [1], the “nanoparticle size (DLS)” value is listed as “approximately 10 nm”.
